The results in this text go back to patent US12097215B2, “Antibacterial composition and its use in treating bacterial infections” (Vector Vitale IP LLC, priority 2017, dated 2024).

Experiment [1] relates to P. aeruginosa ATCC 27853. Nature of the experiment: MIC by serial dilutions in broth (visible growth).
Description: (§3) The minimum inhibitory concentration (MIC) and minimum bactericidal concentration (MBC) of the antibacterial composition enriched for the light isotope zinc ^64Zne was evaluated in the experiment. […] S. aureus ATCC 25923, E. coli ATCC 25922 and P. aeruginosa ATCC 27853 were used as test cultures.
(§4) The studies were carried out using the method of serial dilutions in broth. To determine sensitivity of microorganisms to the antibacterial composition, 0.5 ml of broth was placed into each tube. The number of tubes was determined based on the desired number of dilutions and was increased by one for the “negative” control (no test composition). Series of two-fold serial dilutions of the test variants of the antibacterial composition were used and concentrations ranging from 450 mcg ^64Zne/ml to 0.000107 mcg ^64Zne/ml were obtained.
(§5) Reference test strains of S. aureus ATCC 25923, E. coli ATCC 25922 and P. aeruginosa ATCC 27853 were incubated in Mueller-Hinton liquid broth at 37° C. for 24 hours. Standard bacterial suspension equivalent to 0.5 McFarland standard diluted 100-fold with the broth was used for the inoculation of the tubes after which the concentration of microorganism in it was approximately 10^6 CFU/ml.
(§6) 0.5 ml of inoculum was added to each tube containing 0.5 ml of the appropriate dilution of a solution of the ^64Zn-enriched salt of interest. […] The final concentration of the microorganism in each tube was approximately 5×10^5 CFU/ml.
(§7) The tubes were incubated at 35° C. in air for 16-20 or 20-24 hours (depending on the bacterial strain).
(§8) To determine the presence of microorganism growth the test tubes with inoculum were viewed under transmitted light. Transmitted light was measured by spectrophotometry. The growth of culture in the presence of antibacterial compositions based on ^64Zne was compared with the reference test tube (“negative” control), containing the original inoculum and stored in the refrigerator. The MIC was determined as the lowest concentration of ^64Zne that inhibits visible growth of the microorganism. Both gram-positive (S. aureus) and gram-negative bacteria (P. aeruginosa, E. coli) were used in the experiments described below.
(§9) That is, ^64Zne in the form of a salt was compared with a composition that contains zinc with a natural distribution of isotopes. […] Relevant samples containing salt of natural zinc with EDDA and natural zinc sulfate were used for the comparison.
(§10) The following commercial antibacterial medications were used for the study: azithromycin and ceftriaxone and norfloxacin. The initial concentration of 3000 mcg/ml was used for the samples of all the above compounds. […] Serial dilutions of the above antibacterial compounds were also prepared in the same way as for the antibacterial composition of the invention. The same pathogenic strains of S. aureus ATCC 25923, E. coli ATCC 25922, P. aeruginosa ATCC 27853 were used for the study.
The subject of experiment [2] is E. coli ATCC 25922. As to the kind of experiment: MIC by serial dilutions in broth (visible growth). The format is cell-based.
Description: as §3, §4, §5, §6, §7, §8, §9, §10
The test system of experiment [3] is E. coli ATCC 25922. Nature of the experiment: MBC by plating tube contents on Mueller-Hinton medium. The format is cell-based. The protocol:
(§1) To evaluate the bactericidal action of the antibacterial composition based on light isotope ^64Zne the minimum bactericidal concentration (MBC) was determined by plating out 0.1 ml of the contents of each tube containing the antibacterial composition on Mueller-Hinton medium. The incubation was at 37° C. for 24 h.
(§2) The MBC of the test samples was determined as the lowest concentration at which there was no growth on Mueller-Hinton agar medium.

Experiment [4] has as its system S. aureus ATCC 25923. The description is as above. The format is cell-based. The protocol: as §1, §2
For experiment [5], the system named is P. aeruginosa ATCC 27853. Described as above. The format is cell-based. The protocol: as §1, §2
Experiment [6] deals with S. aureus ATCC 25923. As to the kind of experiment: MIC by serial dilutions in broth (visible growth). The format is cell-based.
Where [7] appears, read: concentration of ^64Zne, Tables 1-5.
The mark [8] stands for this setting: Table 7, ^64Zne vs natural zinc.
Where [9] appears, read: Table 8, ^64Zne vs natural zinc.

≈ marks a conversion by molar mass, not a printed value. Where two headings read alike, the source gives them in different places. Marks after values point to notes of the source that are not given here.

As to `CO/N=C(\C(=O)N[C@@H]1C(=O)N2C(C(=O)O)=C(CSc3nc(=O)c(=O)[nH]n3C)CS[C@H]12)c1csc(N)n1` [ceftriaxone, reference compound], the MIC in the experiment with P. aeruginosa ATCC 27853 [1] (Pseudomonas aeruginosa, ATCC27853) was determined as 750 µg/mL (≈ 1350 µM); in the experiment with E. coli ATCC 25922 [2] (Escherichia coli, ATCC25922, Table 9, commercial antibacterial agents, read-out: MIC) it was 2.93 µg/mL (≈ 5.28 µM); in the experiment on S. aureus ATCC 25923 [6] (Staphylococcus aureus, ATCC25923, Table 9, commercial antibacterial agents, read-out: MIC), 11.7 µg/mL (≈ 21.1 µM). The MBC with E. coli ATCC 25922 [3] (Escherichia coli, ATCC25922, Table 10, commercial antibacterial agents, read-out: MBC) is 11.7 µg/mL (≈ 21.1 µM); in the experiment on S. aureus ATCC 25923 [4] (Staphylococcus aureus, ATCC25923, Table 10, commercial antibacterial agents, read-out: MBC), 375 µg/mL (≈ 676 µM); in the experiment with P. aeruginosa ATCC 27853 [5] (Pseudomonas aeruginosa, ATCC27853, Table 10, commercial antibacterial agents, read-out: MBC) it was below 1500 µg/mL.
With `NC(CCC(=O)[O-])C(=O)[O-].[64Zn+2]` (stereo not shown) [^64Zne glutamate], in the experiment with P. aeruginosa ATCC 27853 [1], the “bacteriostatic activity (in words)” value is on record as “best results”. The figures for the MIC against P. aeruginosa ATCC 27853 [1] (setting [7]), with E. coli ATCC 25922 [2] (setting [7]) and in the experiment on S. aureus ATCC 25923 [6] (setting [7]) were 0.183 µg/mL, 0.0057 µg/mL and 0.0458 µg/mL, respectively. The visible growth entry is reported as “+” with E. coli ATCC 25922 [2] (^64Zne 0.00018 mcg/ml); “+” in the experiment on E. coli ATCC 25922 [2] (^64Zne 0.00036 mcg/ml); “+” with E. coli ATCC 25922 [2] (^64Zne 0.00072 mcg/ml); “+” in the experiment on E. coli ATCC 25922 [2] (^64Zne 0.0014 mcg/ml); “+” in the experiment on E. coli ATCC 25922 [2] (^64Zne 0.0029 mcg/ml); “−” with E. coli ATCC 25922 [2] (^64Zne 0.0057 mcg/ml). The visible growth result in the experiment with E. coli ATCC 25922 [2] (^64Zne 0.011 mcg/ml), in the experiment on E. coli ATCC 25922 [2] (^64Zne 0.023 mcg/ml), in the experiment on E. coli ATCC 25922 [2] (^64Zne 0.046 mcg/ml), in the experiment on E. coli ATCC 25922 [2] (^64Zne 0.092 mcg/ml), in the experiment with E. coli ATCC 25922 [2] (^64Zne 0.18 mcg/ml) and in the experiment with E. coli ATCC 25922 [2] (^64Zne 0.37 mcg/ml) was “−” in each case. For the same compound, the visible growth result in the experiment on E. coli ATCC 25922 [2] (^64Zne 0.73 mcg/ml), in the experiment on E. coli ATCC 25922 [2] (^64Zne 1.46 mcg/ml), with E. coli ATCC 25922 [2] (^64Zne 2.93 mcg/ml), with E. coli ATCC 25922 [2] (^64Zne 5.86 mcg/ml), in the experiment on E. coli ATCC 25922 [2] (^64Zne 11.72 mcg/ml) and with E. coli ATCC 25922 [2] (^64Zne 23.44 mcg/ml) was “−” each time. Moreover, the visible growth result in the experiment on E. coli ATCC 25922 [2] (^64Zne 46.88 mcg/ml) is on record as “−”; in the experiment on E. coli ATCC 25922 [2] (^64Zne 93.75 mcg/ml) it was “−”; with E. coli ATCC 25922 [2] (^64Zne 187.5 mcg/ml) it was “−”; in the experiment with E. coli ATCC 25922 [2] (^64Zne 375 mcg/ml), “−”; in the experiment on E. coli ATCC 25922 [2] (^64Zne 750 mcg/ml), “−”; in the experiment with S. aureus ATCC 25923 [6] (^64Zne 0.00018 mcg/ml), “+”. Also, the visible growth entry in the experiment with S. aureus ATCC 25923 [6] (^64Zne 0.00036 mcg/ml), in the experiment with S. aureus ATCC 25923 [6] (^64Zne 0.00072 mcg/ml), in the experiment with S. aureus ATCC 25923 [6] (^64Zne 0.0014 mcg/ml), with S. aureus ATCC 25923 [6] (^64Zne 0.0029 mcg/ml), with S. aureus ATCC 25923 [6] (^64Zne 0.0057 mcg/ml) and in the experiment with S. aureus ATCC 25923 [6] (^64Zne 0.011 mcg/ml) was “+” each time. The visible growth entry in the experiment with S. aureus ATCC 25923 [6] (^64Zne 0.023 mcg/ml) is reported as “+”; in the experiment with S. aureus ATCC 25923 [6] (^64Zne 0.046 mcg/ml), “−”; in the experiment with S. aureus ATCC 25923 [6] (^64Zne 0.092 mcg/ml) it was “−”; in the experiment on S. aureus ATCC 25923 [6] (^64Zne 0.18 mcg/ml), “−”; in the experiment on S. aureus ATCC 25923 [6] (^64Zne 0.37 mcg/ml), “−”; in the experiment on S. aureus ATCC 25923 [6] (^64Zne 0.73 mcg/ml), “−”. The visible growth entry in the experiment on S. aureus ATCC 25923 [6] (^64Zne 1.46 mcg/ml), in the experiment with S. aureus ATCC 25923 [6] (^64Zne 2.93 mcg/ml), in the experiment with S. aureus ATCC 25923 [6] (^64Zne 5.86 mcg/ml), with S. aureus ATCC 25923 [6] (^64Zne 11.72 mcg/ml), in the experiment with S. aureus ATCC 25923 [6] (^64Zne 23.44 mcg/ml) and in the experiment with S. aureus ATCC 25923 [6] (^64Zne 46.88 mcg/ml) was “−” each time. Also, the visible growth entry with S. aureus ATCC 25923 [6] (^64Zne 93.75 mcg/ml), in the experiment on S. aureus ATCC 25923 [6] (^64Zne 187.5 mcg/ml) and in the experiment on S. aureus ATCC 25923 [6] (^64Zne 375 mcg/ml) was “−” each time. The MBC in the experiment on E. coli ATCC 25922 [3] (Table 6) is reported as 0.37* mcg ^64Zne/ml; against S. aureus ATCC 25923 [4] (Table 6), 0.046* mcg ^64Zne/ml; against P. aeruginosa ATCC 27853 [5] (Table 6) it was above 750 mcg ^64Zne/ml.
`O=S(=O)([O-])[O-].[Zn+2]` [Natural zinc - sulfate, natural zinc sulfate, reference compound]: the MIC was determined as 750 zinc/ml against P. aeruginosa ATCC 27853 [1] (setting [8]), 187.5 zinc/ml with E. coli ATCC 25922 [2] (setting [8]) and 93.75 zinc/ml in the experiment on S. aureus ATCC 25923 [6] (setting [8]). Also, the MBC with E. coli ATCC 25922 [3] (setting [9]), against S. aureus ATCC 25923 [4] (setting [9]) and against P. aeruginosa ATCC 27853 [5] (setting [9]) was above 750 mcg zinc/ml throughout.
